Values quoted from earlier work as cited in US20140093563A1, “FEBUXOSTAT COMPOSITIONS” (RANBAXY LABORATORIES LIMITED, priority 2011, published 2014).

Q: Which “Solubility (BCS)” value does the source give for Cc1nc(-c2ccc(OCC(C)C)c(C#N)c2)sc1C(=O)O [febuxostat, 2-(3-cyano-4-isobutyloxyphenyl)-4-methyl-5-thiazolecarboxylic acid] here?
A: low solubility
